Reference: article PMC9927515, “Discovery and Mechanism of Action of a Novel Antimicrobial Peptide from an Earthworm” (Microbiology Spectrum, 2023)
Where no end group is shown, it is not given here.

Experiments:
[1] = system: sheep blood; type: cell-based
Experimental: Sterile defibrinated sheep blood (Titan, Shanghai, China) was kept at 4°C and was used within 3 days after being received. Hemolysis assessment was conducted following the method of Liu et al. ([34]). The hemolysis rate was calculated using the following formula: hemolysis rate = [([…] sample - […] blank)/([…] 0.2% Triton X-100 - […] blank)] × 100.

[2] = Sensitivity to temperature (residual antibacterial rate); type: physicochemical; conditions: water bath 50-100°C for 1 h; residual antibacterial rate by MIC method, OD600; especially in E. coli; Fig. S2a
Experimental: (§1) The AMP was treated for 1 h with a water bath heated at 50, 60, 70, 80, 90, or 100°C to evaluate temperature sensitivity, while the pH was adjusted to 2, 4, 6, 8, 10, and 12 and then back to 7.4 after 1 h to evaluate pH sensitivity. The changes in antibacterial activity were determined using the MIC method, as follows: antibacterial rate = [(OD600 positive control − OD600 sample)/(OD600 positive control − OD600 negative control)] × 100, where OD600 is the optical density at 600 nm.
(§2) Table S1 Sequences of 21 synthetic peptides
(§3) Table S3 Sequences and MICs of derivatives of EWAMP.15
(§4) Table S4 Sequences and MICs of Alanine scanning derivatives
(§5) Table S5 Sequences and MICs of Arg and Lys derivatives
(§6) Table S6 Summary of membrane thickness
(§7) Table S7 Primers used in RT-PCR
(§8) Fig. S1 MICs of EWAMP.15 12 -24 derivatives that were replaced in different sites. In
(§9) the X-axis, the number and the letter represent the replaced site and the amino acid residue.
(§10) Fig. S2 Physical stability and in vitro toxicity of EWAMP-R. (a) Residual antibacterial
(§11) rates after water heating for 1 h showing the temperature stability. (b) Residual antibacterial
(§12) rates after acid or alkaline solution treatment showing the pH stability. (c) Hemolytic
(§13) and negative controls. (d) Cell survival rate of LO2 after EWAMP-R treatment. All the cell
(§14) survival rate was above 95%.
(§15) Fig. S3 Root-mean-squared deviation (RMSD) and root-mean-squared fluctuation […]

[3] = Sensitivity to pH (residual antibacterial rate); type: physicochemical; conditions: pH adjusted to 2-12, back to 7.4 after 1 h; residual antibacterial rate by MIC method, OD600; especially in E. coli; Fig. S2b
Experimental: as §1, §2, §3, §4, §5, §6, §7, §8, §9, §10, §11, §12, §13, §14, §15

## RIWWSGGWRRWRW [EWAMP-R]
[1]
  hemolytic activity: absorbance in treatment groups versus negative controls: not significantly different
[2]
  stability of antibacterial activity under temperature changes: comparative stability
[3]
  stability of antibacterial activity under pH changes: comparative stability
